Data published in PMC3566223 (Cancer prevention research (Philadelphia, Pa.), 2012).

Assays:
[1] = cited from earlier work
[2] = Curcuminoid levels in colonic mucosa biopsies; type: in vivo, human; details: for Mucosal level, mean concentration ± SEM, unwashed, surgical biopsies / Mucosal level, mean concentration ± SEM, washed, surgical biopsies / Mucosal level, mean concentration ± SEM, unwashed, endoscopy biopsies / Mucosal level, mean concentration ± SEM, washed, endoscopy biopsies: patients, oral Curcumin C3 complex 2.35 g once daily 14 days; for Mucosal level, mean concentration ± SEM, unwashed, surgical biopsies / Mucosal level, mean concentration ± SEM, washed, surgical biopsies: n=5; for Mucosal level, mean concentration ± SEM, unwashed, endoscopy biopsies / Mucosal level, mean concentration ± SEM, washed, endoscopy biopsies: n=30
[3] = Curcuminoid levels in plasma; type: in vivo, human; details: of 24 participants
[4] = test system: Apc^Min mouse model of inherited colorectal cancer; details: dietary curcumin; cited from earlier work
[5] = Curcuminoid levels in 24 h urine collection; type: in vivo, human; details: 24 h urine between last two doses
[6] = Pre- and post-trial self-reported questionnaire; type: in vivo, human; details: 24 participants completing the 2 week course; period of administration
Adverse event monitoring = type: in vivo, human
[7] = one participant, right hemi-colectomy, no bowel preparation of biopsied area
[8] = AEs possibly or probably attributable

SMILES: COc1cc(/C=C/C(=O)CC(=O)/C=C/c2ccc(O)c(OC)c2)ccc1O [Curcumin, curcumin]
- Lipophilicity [1]: highly lipophilic
- Surface curcumin level, single participant [2, 7]: 551.1 µg/g
- Tissue curcumin level, single participant [2, 7]: 228.3 µg/g
- Mean pre-wash curcumin level, left-sided paired endoscopic biopsies ([2]; oral Curcumin C3 complex 2.35 g daily 14 days, paired left-sided, n=12 pairs): 9.0 µg/g
- Mean pre-wash curcumin level, right-sided paired endoscopic biopsies ([2]; oral Curcumin C3 complex 2.35 g daily 14 days, paired right-sided, n=12 pairs): 35.4 µg/g
- Decrease in tissue curcumin after consecutive washes ([2]; paired right-sided biopsy samples): 74%
- Mucosal level, mean concentration ± SEM, unwashed, surgical biopsies [2]: 75.32 ± 39.71 µg/g
- Mucosal level, mean concentration ± SEM, washed, surgical biopsies [2]: 12.50 ± 3.07 µg/g
- Mucosal level, mean concentration ± SEM, unwashed, endoscopy biopsies [2]: 42.31 ± 23.68 µg/g
- Mucosal level, mean concentration ± SEM, washed, endoscopy biopsies [2]: 19.91 ± 7.87 µg/g
- Persistence of high curcumin levels in mucosa post-administration ([2]; time after last dose at which mucosa was biopsied): up to 40 h
- Quantifiable in plasma (number of participants) [3]: 4
- Reduction of adenoma formation [4]: 39-64%
- Urine level, mean [5]: 27.0 ng/mL
- Urine curcumin level, range ([5]; 12 participants with quantifiable levels): 0.67 to 503.3 ng/mL
- Experienced abdominal pain, post-trial responses [6]: 21 % participants
- Experienced bowel incontinence, post-trial responses [6]: 12 % participants
- Experienced constipation, post-trial responses [6]: 13 % participants
- Experienced diarrhoea, post-trial responses [6]: 38 % participants
- Total gastrointestinal events, number of patients (Adverse event monitoring; 26 patients commenced curcumin): 6
- Abdominal pain, number of events (Adverse event monitoring; [8]): 3
- Bloating, number of events (Adverse event monitoring; [8]): 1
- Diarrhoea, number of events (Adverse event monitoring; [8]): 3
- Dyspepsia, number of events (Adverse event monitoring; [8]): 1
- Flatulence, number of events (Adverse event monitoring; [8]): 1
- Nausea, number of events (Adverse event monitoring; [8]): 2
- Vomiting, number of events (Adverse event monitoring; [8]): 2
- Total gastrointestinal events, number of events (Adverse event monitoring; AEs possibly or probably attributable, Curcumin C3 complex 2.35 g daily 14 days): 13
- Serious adverse events (SAEs) attributable to curcumin (Adverse event monitoring; Curcumin C3 complex 2.35 g daily 14 days): no serious adverse events
- Abdominal pain, grade (Adverse event monitoring; NCI-CTC v3.0 grade): 1,2
- Bloating, grade (Adverse event monitoring; NCI-CTC v3.0 grade): 2
- Diarrhoea, grade (Adverse event monitoring; NCI-CTC v3.0 grade): 1
- Dyspepsia, grade (Adverse event monitoring; NCI-CTC v3.0 grade): 1
- Flatulence, grade (Adverse event monitoring; NCI-CTC v3.0 grade): 1
- Nausea, grade (Adverse event monitoring; NCI-CTC v3.0 grade): 1,2
- Total gastrointestinal events, grade (Adverse event monitoring; NCI-CTC v3.0 grade): 1 - 2
- Vomiting, grade (Adverse event monitoring; NCI-CTC v3.0 grade): 1,2
- Abdominal pain, number of patients (Adverse event monitoring; in vivo): 3
- Bloating, number of patients (Adverse event monitoring; in vivo): 1
- Diarrhoea, number of patients (Adverse event monitoring; in vivo): 3
- Dyspepsia, number of patients (Adverse event monitoring; in vivo): 1
- Flatulence, number of patients (Adverse event monitoring; in vivo): 1
- Nausea, number of patients (Adverse event monitoring; in vivo): 2
- Vomiting, number of patients (Adverse event monitoring; in vivo): 2

SMILES: COc1cc(/C=C/C(=O)CC(=O)/C=C/c2ccc(O)cc2)ccc1O [Desmethoxycurcumin, desmethoxycurcumin]
- Detectable in mucosal samples (number of biopsies) ([2]; of 35 mucosal samples, oral Curcumin C3 complex 2.35 g daily 14 days): 27 out of 35
- Mucosal level, mean concentration ± SEM, unwashed, surgical biopsies [2]: 10.42 ± 6.52 µg/g
- Mucosal level, mean concentration ± SEM, washed, surgical biopsies [2]: 1.27 ± 0.42 µg/g
- Mucosal level, mean concentration ± SEM, unwashed, endoscopy biopsies [2]: 6.33 ± 3.75 µg/g
- Mucosal level, mean concentration ± SEM, washed, endoscopy biopsies [2]: 4.03 ± 1.69 µg/g
